From patent publication US20220184008A1, “MODULATORS OF INTRACELLULAR CHLORIDE CONCENTRATION” (FONDAZIONE ISTITUTO ITALIANO DI TECNOLOGIA, priority 2019, published 2022)
Like-named read-outs stand apart in the source and are kept apart here.

Target: T1, NKCC1 (Homo sapiens, UniProt P55011)
T1 construct: expressed in transfected cells; host or cells: HEK293
T1 sequence (P55011 1-1212): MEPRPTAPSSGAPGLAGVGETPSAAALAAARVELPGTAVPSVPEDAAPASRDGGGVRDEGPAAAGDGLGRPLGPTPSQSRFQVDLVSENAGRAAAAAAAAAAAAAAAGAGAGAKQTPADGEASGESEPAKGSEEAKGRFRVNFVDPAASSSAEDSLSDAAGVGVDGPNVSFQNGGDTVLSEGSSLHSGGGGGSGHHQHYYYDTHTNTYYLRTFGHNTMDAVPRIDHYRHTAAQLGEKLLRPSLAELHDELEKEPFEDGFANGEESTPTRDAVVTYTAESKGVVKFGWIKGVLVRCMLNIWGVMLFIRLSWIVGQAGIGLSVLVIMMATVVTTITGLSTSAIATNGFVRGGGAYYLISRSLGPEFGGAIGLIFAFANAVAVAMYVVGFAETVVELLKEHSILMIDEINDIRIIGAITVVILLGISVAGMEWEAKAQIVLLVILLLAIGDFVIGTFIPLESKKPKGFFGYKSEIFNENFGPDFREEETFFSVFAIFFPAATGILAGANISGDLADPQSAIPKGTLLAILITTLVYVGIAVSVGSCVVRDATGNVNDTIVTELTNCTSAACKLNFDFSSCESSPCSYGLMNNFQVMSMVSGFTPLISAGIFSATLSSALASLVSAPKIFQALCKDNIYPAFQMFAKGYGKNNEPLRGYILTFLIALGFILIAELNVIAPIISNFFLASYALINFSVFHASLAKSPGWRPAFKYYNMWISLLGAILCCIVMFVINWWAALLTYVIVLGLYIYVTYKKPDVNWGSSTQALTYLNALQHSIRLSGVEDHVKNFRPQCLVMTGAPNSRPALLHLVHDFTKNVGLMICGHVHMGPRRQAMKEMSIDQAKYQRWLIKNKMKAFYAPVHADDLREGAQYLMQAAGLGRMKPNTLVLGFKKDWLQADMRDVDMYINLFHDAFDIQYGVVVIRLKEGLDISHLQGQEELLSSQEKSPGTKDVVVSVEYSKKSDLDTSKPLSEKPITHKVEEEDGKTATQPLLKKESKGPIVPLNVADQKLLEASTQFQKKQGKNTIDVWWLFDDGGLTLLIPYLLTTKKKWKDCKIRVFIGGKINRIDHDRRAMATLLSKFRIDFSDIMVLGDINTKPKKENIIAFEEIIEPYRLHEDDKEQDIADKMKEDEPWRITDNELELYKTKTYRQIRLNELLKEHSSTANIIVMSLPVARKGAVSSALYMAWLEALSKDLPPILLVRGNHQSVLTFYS
Assay: Chloride kinetic assay (Cl-sensitive YFP) in NKCC1-transfected HEK293 cells
Type: cell-based
Conditions: for inhibition at 10 µM / NKCC1 Inhibition % 10 μM HEK Chloride YFP assay: NKCC1-transfected HEK293; for inhibition at 10 µM: read-out: NKCC1 Inhibition % 10 μM HEK Chloride YFP assay; for effect on decrease in fluorescence upon NaCl application in NKCC1-transfected cells: pre-incubation at 10 μM and 100 μM
Procedure: FIG. 1: In vitro testing of the NKCC1 inhibitors in the chloride kinetic assay a) Example traces obtained in the chloride kinetic assay on HEK cells transfected with the YFP (mock) or with YFP and NKCC1. The arrow indicates the addition of NaCl (final concentration 74 mM) used to initiate the flux assay. b) Quantification of the effect of bumetanide (10 μM and 100 μM) or furosemide (10 μM and 100 μM) in the chloride kinetic assay on mock or NKCC1-transfected HEK293 cells. Data represents mean±sem from 5 independent experiments. c) Quantification of the effect of bumetanide and furosemide and 2 selected compounds (3.8, 3.17) in the chloride kinetic assay on NKCC1-transfected HEK293 cells. Data represents mean±sem from 5 independent experiments, and they are represented as % of the controls. *P<0.05, **P<0.01, ***P<0.001 Kruskal-Wallis Anova (Dunn's Post hoc Test); ###P<0.001 two-tailed unpaired Student t-test.
To screen in vitro the compounds efficiency in blocking NKCC1, a functional NKCC1 transporter assay was performed by measuring variation of Cl^− ion concentration in the cell through a Cl^− sensitive membrane-tagged yellow fluorescent protein (mbYFPQS, Addgene). mbYFPQS fluorescence is inversely dependent on the concentration of Cl^− inside the cell thus allowing an indirect estimation of the Cl^− transporter activity. In particular, HEK293 cells were transfected with NKCC1 or mock construct (control) together with the Cl^− sensitive YFP. After 2 DIV, the cells were treated with bumetanide and furosemide (as positive controls) or with each of the tested compounds of the invention in a Cl^− free medium. After 30 min, the inhibitory activity of the compounds was tested by monitoring fluorescence upon application of NaCl (FIG. 1a). Transported by NKCC1, Cl binds the YFP, leading to a fluorescence decrease. […] With the Cl kinetic assay, the NKCC1 inhibitory activity of the selected compounds was tested (FIG. 1c).

| inhibition at 10 µM (Table 1) [%] | NKCC1 Inhibition % 10 μM HEK Chloride YFP assay (Table 1) | NKCC1 Inhibition % 10 μM HEK Chloride YFP assay (Table 2) | Molecule | further results |
| --- | --- | --- | --- | --- |
| 9 |  |  | CCCCNc1ccc(C(=O)O)cc1S(=O)(=O)N(C)C [Compound 3.11, 4-(butylamino)-3-(dimethylsulfamoyl)benzoic acid] |  |
|  | Inactive | Inactive | CCCCCCCCNc1ccc(C(=O)O)cc1S(=O)(=O)N(C)C [Compound 3.13, 3-(dimethylsulfamoyl)-4-(octylamino)benzoic acid] |  |
| 5 |  |  | CCCCCCCCNc1ccc(C(=O)O)cc1S(N)(=O)=O [Compound 2.8, 4-(octylamino)-3-sulfamoyl-benzoic acid] |  |
| 8 |  |  | CCCCCCNc1ccc(C(=O)O)cc1S(=O)(=O)N(C)C [Compound 3.12, 3-(dimethylsulfamoyl)-4-(hexylamino)benzoic acid] |  |
| 16 |  |  | CCCCCCCCNc1ccc(C(=O)O)cc1S(=O)(=O)NC [Compound 3.8, 3-(methylsulfamoyl)-4-(octylamino)benzoic acid] |  |
| 1 |  |  | CC(C)(C)CCNc1ccc(C(=O)O)cc1S(N)(=O)=O [Compound 2.9, 4-(3,3-dimethylbutylamino)-3-sulfamoyl-benzoic acid] |  |
|  | Inactive | Inactive | CCCCCCNc1ccc(C(=O)O)cc1S(=O)(=O)NC [Compound 3.7, 4-(hexylamino)-3-(methylsulfamoyl)benzoic acid] |  |
| 37 |  |  | CN(C)S(=O)(=O)c1cc(C(=O)O)ccc1NCCCCCCCC(F)(F)F [Compound 3.17, 3-(dimethylsulfamoyl)-4-(8,8,8-trifluorooctylamino) benzoic acid] | NKCC1 inhibition compared with bumetanide and furosemide (100 μM): better than bumetanide and furosemide |
| 8 |  |  | CCCCNc1ccc(C(=O)O)cc1S(=O)(=O)NC [Compound 3.6, 4-(butylamino)-3-(methylsulfamoyl)benzoic acid] |  |
|  | Inactive | Inactive | CN(C)S(=O)(=O)c1cc(C(=O)O)ccc1NCCC(C)(C)C [Compound 3.14, 4-(3,3-dimethylbutylamino)-3-(dimethylsulfamoyl)benzoic acid] |  |
|  | Inactive | Inactive | CNS(=O)(=O)c1cc(C(=O)O)ccc1NCCC(C)(C)C [Compound 3.9, 4-(3,3-dimethylbutylamino)-3-(methylsulfamoyl)benzoic acid] |  |

The next lines start with the molecule.

| Molecule | inhibition at 10 µM (Table 1) [%] | NKCC1 Inhibition % 10 μM HEK Chloride YFP assay (Table 1) | NKCC1 Inhibition % 10 μM HEK Chloride YFP assay (Table 2) | further results |
| --- | --- | --- | --- | --- |
| CCCCCCCCNc1cc(Cl)c(C(=O)O)cc1S(N)(=O)=O [Compound 2.4, 2-chloro-4-(octylamino)-5-sulfamoyl-benzoic acid] | 14 |  |  |  |
| CCCCCCNc1cc(Cl)c(C(=O)O)cc1S(N)(=O)=O [Compound 2.3, 2-chloro-4-(hexylamino)-5-sulfamoyl-benzoic acid] | 10 |  |  |  |
| CCCCCCCCNc1ccc([N+](=O)[O-])cc1S(=O)(=O)N(C)C [Compound 1.16, N,N-dimethyl-5-nitro-2-(octylamino)benzenesulfonamide] |  | Inactive | Inactive |  |
| CNS(=O)(=O)c1cc([N+](=O)[O-])ccc1NCCC(C)(C)C [Compound 1.13, 2-(3,3-dimethylbutylamino)-N-methyl-5-nitro-benzenesulfonamide] | 17 |  |  |  |
| CCCCNc1ccc([N+](=O)[O-])cc1S(=O)(=O)NC [Compound 1.10, 2-(butylamino)-N-methyl-5-nitro-benzenesulfonamide] |  | Inactive | Inactive |  |
| CCCCNc1ccc(C(=O)O)cc1S(N)(=O)=O [Compound 2.6, 4-(butylamino)-3-sulfamoyl-benzoic acid] |  | Inactive | Inactive |  |
| CCCCNc1cc(C(=O)O)cc(S(N)(=O)=O)c1Oc1ccccc1 [Bumetanide, reference compound] | 54 |  |  | effect on decrease in fluorescence upon NaCl application in NKCC1-transfected cells: significantly reduced |
| CCCCNc1ccc([N+](=O)[O-])cc1S(N)(=O)=O [Compound 1.6, 2-(butylamino)-5-nitro-benzenesulfonamide] | 11 |  |  |  |
| CCCCCCNc1ccc([N+](=O)[O-])cc1S(N)(=O)=O [Compound 1.7, 2-(hexylamino)-5-nitro-benzenesulfonamide] | 25 |  |  |  |
| CCCCNc1cc(Cl)c(C(=O)O)cc1S(N)(=O)=O [Compound 2.2, 4-(butylamino)-2-chloro-5-sulfamoyl-benzoic acid] | 36 |  |  |  |
| Furosemide [reference compound] |  | Inactive | Inactive | effect on decrease in fluorescence upon NaCl application in NKCC1-transfected cells: effective at 100 μM only |
| CC(C)(C)CCNc1ccc([N+](=O)[O-])cc1S(N)(=O)=O [Compound 1.9, 2-(3,3-dimethylbutylamino)-5-nitro-benzenesulfonamide] | 5 |  |  |  |
| CCCCCCNc1ccc([N+](=O)[O-])cc1S(=O)(=O)NC [Compound 1.11, 2-(hexylamino)-N-methyl-5-nitro-benzenesulfonamide] |  |  |  | inhibition at 10 µM (Table 2): 3.4% |
| CCCCCCCCNc1ccc([N+](=O)[O-])cc1S(=O)(=O)NC [Compound 1.12, N-methyl-5-nitro-2-(octylamino)benzenesulfonamide] |  | Inactive | Inactive |  |
| CCCCNc1ccc([N+](=O)[O-])cc1S(=O)(=O)N(C)C [Compound 1.14, 2-(butylamino)-N,N-dimethyl-5-nitro-benzenesulfonamide] |  | Inactive | Inactive |  |
| CCCCCCNc1ccc(C(=O)O)cc1S(N)(=O)=O [Compound 2.7, 4-(hexylamino)-3-sulfamoyl-benzoic acid] | 4 |  |  |  |
| CN(C)S(=O)(=O)c1cc([N+](=O)[O-])ccc1NCCC(C)(C)C [Compound 1.17, 2-(3,3-dimethylbutylamino)-N,N-dimethyl-5-nitro-benzenesulfonamide] |  | Inactive | Inactive |  |
| CCCCCCNc1ccc([N+](=O)[O-])cc1S(=O)(=O)N(C)C [Compound 1.15, 2-(hexylamino)-N,N-dimethyl-5-nitro-benzenesulfonamide] | 16 |  |  |  |
| CC(C)(C)CCNc1cc(Cl)c(C(=O)O)cc1S(N)(=O)=O [Compound 2.5, 2-chloro-4-(3,3-dimethylbutylamino)-5-sulfamoyl-benzoic acid] |  | Inactive | Inactive |  |
| CCCCCCCCNc1ccc([N+](=O)[O-])cc1S(N)(=O)=O [Compound 1.8, 5-nitro-2-(octylamino)benzenesulfonamide] | 12 |  |  |  |
